The assay relates to Amb a 1-specific T cell lines (TCL). Briefly: T cell epitope mapping of Amb a 1.3: proliferation (3H-thymidine uptake) of TCL stimulated with synthetic peptides. In kind it is cell-based, human. The note with it: for No. positive patients SI > 3 / No. positive patients SI > 5 / % (positive patients SI > 3) / % (positive patients SI > 5): TCL from 48 ragweed pollen-allergic patients, peptide 5 μg/ml; for No. positive patients SI > 3 / No. positive patients SI > 5: 3H-thymidine uptake after 48 hrs; for No. positive patients SI > 3 / % (positive patients SI > 3): stimulation index > 3; for No. positive patients SI > 5 / % (positive patients SI > 5): stimulation index > 5. An excerpt:
The T cell response to Amb a 1 was characterized in detail using the established in vitro culture system (Jahn-Schmid et al., J. Immunol. 169: 6005-11, 2002; Jahn-Schmid et al., J. Allergy Clin. Immunol., 115: 399-404, 2005). In total, 85 clinically well-defined patients (75 from Vienna/10 from Milano) with typical case history, positive skin prick test and CAP/RAST tests for ragweed extract were included.
Peripheral blood mononuclear cells (PBMC) were isolated from heparinized blood of allergic patients by Ficoll density gradient centrifugation. To generate allergen-specific T cell lines (TCL) and T cell clones (TCC), 1.5×10^6 PBMC were stimulated with optimal doses of ragweed or mugwort extract (4 μg/ml) or rAmb a 1.3 (10 μg/ml) in 24-well flat-bottomed culture plates (Costar, USA). After 5 days human rIL-2 (10 U/ml, Boehringer, Mannheim, Germany) were added and cultures were continued for additional 7 days. Then, T cell blasts were isolated by density centrifugation. The majority of T cell blasts was further expanded with IL-2 and irradiated PBMC. A small number of T cell blasts were used to establish monoclonal T cell cultures by limiting dilution: 0.3 T cells/well were seeded into 96 well round bottom plates (Nunclone) in the presence of 2×10^5 irradiated (60 Gy) PBMC, 0.25% v/v PHA (Gibco, USA) and rIL-2 (4 U/well) in the medium mentioned above. After 14-21 days, growing microcultures were expanded at weekly intervals with irradiated PBMC and rIL-2. The specificity of TCC was assessed in proliferation assays using irradiated allogeneic or HLA-matched PBMC or irradiated EBV-transformed allogeneic B-cells and 5 μg/ml Amb a 1.3. After 48 hours, cellular uptake of tritiated (^3H)-thymidine was performed to measure proliferation in counts per minute (cpm). When the stimulation index (SI; ratio between cpm obtained in cultures containing TCC plus autologous APC plus antigen, and cpm obtained in cultures containing TCC and APC alone) was >10, responses were considered as positive. Allergen-specific TCC were expanded by alternating turns of stimulation with autologous irradiated APC and allergen or with allogeneic feeder cells and rIL-2.
Amb a 1-specific TCL and TCC were used to identify T cell epitopes of Amb a 1.3. T cell cultures were stimulated with a panel of 121 synthetic 12-mer peptides and one 13-mer representing the C-terminal peptide of Amb a 1.3 (Pepset, Biotrend, Germany). Peptides had been synthesized according to the Amb a 1.3 amino acid sequence and overlapped for 9 amino acid residues with the neighbouring peptides (Table 1). Peptides were used at a concentration of 5 μg/ml for stimulation and proliferation of T cell cultures was determined after 48 hrs by ^3H-thymidine-uptake. Because of the frequently observed high background caused by auto-reactivity in TCL, the mean of the cpm observed with the ten least stimulating peptides (none of the peptides was toxic) was used as negative control in calculations of SI. Throughout this manuscript, a peptide comprised one T cell epitope when the stimulation index was at least 3.0.
T cell epitope mapping of Amb a 1.3 was performed evaluating 48 TCL from different patients ([…]), which had been initiated with ragweed extract (containing the natural allergen) or rAmb a 1.3 (Table 2). TCL induced with either ragweed extract or rAmb a 1.3 from the same individual recognized similar T cell epitopes (Table 2; FIG. 7). […] Therefore, their data were combined for further analysis (Table 3). Typical for many inhalant allergens, multiple T cell activating regions were detected in Amb a 1.3. The number of peptides recognized by T cells from a single individual ranged from 2 to maximum 60 peptides with a mean of 17.8 peptides (median=16/for SI>3; resp. 0-36/11.9/12 for SI>5) (see Table 3). In total, 26 relevant (i.e. recognized by ≧10% of patients studied) T cell activating regions comprising 12-18 aa were identified. […]

Take “DTINVAGSSQIW (Amb a 1 fragment) [Peptide 58]”: the “No. positive patients SI > 3” value was 3, the “No. positive patients SI > 5” value was found to be 1, the “% (positive patients SI > 3)” value turned out to be 6.3% and the “% (positive patients SI > 5)” value came out at 2.1%.
In the case of “FQVVNNNYDRWG (Amb a 1 fragment) [Peptide 87]”, the “reactivity with T cells isolated from allergic individuals” value (shortened to “reactivity with T cells isolated”) is given as “reactivity with T cells”, the “No. positive patients SI > 3” value is reported as 5, the “No. positive patients SI > 5” value was 2 and the “% (positive patients SI > 3)” value stood at 10.4%. Besides, the “% (positive patients SI > 5)” value is recorded as 4.2%.
For “AEPGEAAIKLTS (Amb a 1 fragment) [Peptide 117]”, the “No. positive patients SI > 3” value is 4, the “No. positive patients SI > 5” value is given as 3, the “% (positive patients SI > 3)” value is reported as 8.3% and the “% (positive patients SI > 5)” value was found to be 6.3%.
For the sequence “PLWIIFKNDMVI (Amb a 1 fragment) [Peptide 31]”, the “reactivity with T cells isolated” value is reported as “reactivity with T cells”, the “No. positive patients SI > 3” value is on record as 11, the “No. positive patients SI > 5” value came to 10 and the “% (positive patients SI > 3)” value came to 22.9%. Besides, the “% (positive patients SI > 5)” value worked out at 20.8%.
For the sequence “LPGGMIKSNDGP (Amb a 1 fragment) [Peptide 51]”, the “reactivity with T cells isolated” value was “reactivity with T cells”, the “No. positive patients SI > 3” value came to 6, the “No. positive patients SI > 5” value amounted to 3 and the “% (positive patients SI > 3)” value is listed as 12.5%. The “% (positive patients SI > 5)” value is 6.3%.
In the case of “QELVVNSDKTID (Amb a 1 fragment) [Peptide 36]”, the “reactivity with T cells isolated” value was “reactivity with T cells”, the “No. positive patients SI > 3” value was 14, the “No. positive patients SI > 5” value was 12 and the “% (positive patients SI > 3)” value worked out at 29.2%. In addition, the “% (positive patients SI > 5)” value came out at 25.0%.
As for “NINIHDVKVLPG (Amb a 1 fragment) [Peptide 48]”, the “reactivity with T cells isolated” value is listed as “reactivity with T cells”, the “No. positive patients SI > 3” value was 10, the “No. positive patients SI > 5” value is given as 9 and the “% (positive patients SI > 3)” value is given as 20.8%. The “% (positive patients SI > 5)” value came out at 18.8%.
Consider “SDPVLTPVQSAG (Amb a 1 fragment) [Peptide 112]”, for which the “reactivity with T cells isolated” value is reported as “reactivity with T cells”, the “No. positive patients SI > 3” value is given as 7, the “No. positive patients SI > 5” value is given as 3 and the “% (positive patients SI > 3)” value turned out to be 14.6%. In addition, the “% (positive patients SI > 5)” value amounted to 6.3%.
For the sequence “RCRFGFFQVVNN (Amb a 1 fragment) [Peptide 85]”, the “No. positive patients SI > 3” value is on record as 4, the “No. positive patients SI > 5” value is on record as 1, the “% (positive patients SI > 3)” value is listed as 8.3% and the “% (positive patients SI > 5)” value was 2.1%.
Turning to “NPKEGTLRFAAA (Amb a 1 fragment) [Peptide 26]”, the “No. positive patients SI > 3” value is reported as 0, the “No. positive patients SI > 5” value is reported as 0, the “% (positive patients SI > 3)” value came out at 0.0% and the “% (positive patients SI > 5)” value turned out to be 0.0%.
Turning to “NVAGSSQIWIDH (Amb a 1 fragment) [Peptide 59]”, the “reactivity with T cells isolated” value was “reactivity with T cells”, the “No. positive patients SI > 3” value was determined as 11, the “No. positive patients SI > 5” value is 8 and the “% (positive patients SI > 3)” value came out at 22.9%. Also, the “% (positive patients SI > 5)” value is on record as 16.7%.
For the sequence “LDDDVANPKEGT (Amb a 1 fragment) [Peptide 24]”, the “No. positive patients SI > 3” value amounted to 2, the “No. positive patients SI > 5” value worked out at 1, the “% (positive patients SI > 3)” value turned out to be 4.2% and the “% (positive patients SI > 5)” value is reported as 2.1%.
Consider “MIPAEPGEAAIK (Amb a 1 fragment) [Peptide 116]”, for which the “No. positive patients SI > 3” value was 6, the “No. positive patients SI > 5” value was determined as 4, the “% (positive patients SI > 3)” value worked out at 12.5% and the “% (positive patients SI > 5)” value was found to be 8.3%.
“QIWIDHCSLSKS (Amb a 1 fragment) [Peptide 61]”: the “reactivity with T cells isolated” value was “reactivity with T cells”, the “No. positive patients SI > 3” value came to 29, the “No. positive patients SI > 5” value came to 24 and the “% (positive patients SI > 3)” value is listed as 60.4%. The “% (positive patients SI > 5)” value turned out to be 50.0%.
For “QIKKNVLARTGT (Amb a 1 fragment) [Peptide 99]”, the “reactivity with T cells isolated” value is recorded as “reactivity with T cells”, the “No. positive patients SI > 3” value is reported as 8, the “No. positive patients SI > 5” value is given as 4 and the “% (positive patients SI > 3)” value turned out to be 16.7%. Moreover, the “% (positive patients SI > 5)” value is on record as 8.3%.
“TIDGRGVKVEII (Amb a 1 fragment) [Peptide 39]”: the “reactivity with T cells isolated” value is reported as “reactivity with T cells”, the “No. positive patients SI > 3” value was 19, the “No. positive patients SI > 5” value was found to be 16 and the “% (positive patients SI > 3)” value worked out at 39.6%. Moreover, the “% (positive patients SI > 5)” value was determined as 33.3%.
Consider “CKFTQQSKAILL (Amb a 1 fragment) [Peptide 71]”, for which the “No. positive patients SI > 3” value was 4, the “No. positive patients SI > 5” value is given as 2, the “% (positive patients SI > 3)” value is listed as 8.3% and the “% (positive patients SI > 5)” value is given as 4.2%.
Regarding “FDGLVDVTLGST (Amb a 1 fragment) [Peptide 65]”, the “No. positive patients SI > 3” value is 2, the “No. positive patients SI > 5” value stood at 1, the “% (positive patients SI > 3)” value is 4.2% and the “% (positive patients SI > 5)” value was found to be 2.1%.
Consider “QACEAYNIIDKC (Amb a 1 fragment) [Peptide 7]”, for which the “No. positive patients SI > 3” value was determined as 1, the “No. positive patients SI > 5” value turned out to be 0, the “% (positive patients SI > 3)” value amounted to 2.1% and the “% (positive patients SI > 5)” value was 0.0%.
On the same counts, the results for “ESMAWNWRSDKD (Amb a 1 fragment) [Peptide 104]” are 2, 1, 4.2% and 2.1%.
“IDHCSLSKSFDG (Amb a 1 fragment) [Peptide 62]”: the “No. positive patients SI > 3” value is 3, the “No. positive patients SI > 5” value is on record as 2, the “% (positive patients SI > 3)” value was determined as 6.3% and the “% (positive patients SI > 5)” value was determined as 4.2%.
On to “LATVAFNMFTDN (Amb a 1 fragment) [Peptide 79]”, for which the “reactivity with T cells isolated” value was “reactivity with T cells”, the “No. positive patients SI > 3” value worked out at 5, the “No. positive patients SI > 5” value came to 2 and the “% (positive patients SI > 3)” value turned out to be 10.4%. In addition, the “% (positive patients SI > 5)” value was 4.2%.
With “KGMLATVAFNMF (Amb a 1 fragment) [Peptide 78]”, the “reactivity with T cells isolated” value is “reactivity with T cells”, the “No. positive patients SI > 3” value worked out at 11, the “No. positive patients SI > 5” value was 6 and the “% (positive patients SI > 3)” value stood at 22.9%. Moreover, the “% (positive patients SI > 5)” value stood at 12.5%. For the same sequence, the “T cell activating region recognized by % of patients” value (classes of prevalence referring to SI>5, 48 TCL) is given as “recognized by 12.5%”.
With “WRSDKDLLENGA (Amb a 1 fragment) [Peptide 106]”, the “No. positive patients SI > 3” value worked out at 3, the “No. positive patients SI > 5” value turned out to be 1, the “% (positive patients SI > 3)” value was found to be 6.3% and the “% (positive patients SI > 5)” value is 2.1%.

The values are drawn from patent US9360486B2, “Allergen fragments” (Biomay AG, priority 2007, dated 2016).
